Data published in PubChem BioAssay AID624344 (Sanford-Burnham Center for Chemical Genomics, 2012).
Activity calls are given as the source filed them. The rule behind the calls is not given here.

What was measured:
Cytotoxicity = assay: NFkB reporter suppression in cystic fibrosis bronchial cells – cell-based, uHTS hits, panel, cytotoxicity readout, dose response (AID 624344); settings: CF bronchial epithelial cells, mean of runs
[1] = as above; settings: CF bronchial epithelial cells, PAF-induced NFkB reporter inhibition; with PAF, mean of runs

Row | Structure (SMILES) | IC50 (Cytotoxicity) | IC50 [1]
1 | c1ccc2c(-c3ccc4nncn4c3)cncc2c1 | > 79 µM (inactive) | 1.42 µM
2 | CCCCCCCCCCCCCCC(O)C[N+](C)(CCO)CCO (configuration not stated) | 5.47 µM | 4.61 µM
3 | O=C(COC(=O)c1ccc2[nH]c3c(c2c1)CCCC3)Nc1ccccc1Cl | 36.6 µM | inactive
4 | COc1ccc(C(c2nnnn2-c2ccc(OC)cc2)N2CCC(n3c(=O)[nH]c4ccccc43)CC2)cc1 (configuration not stated) | 11.7 µM | 5.8 µM
5 | CC1CCCCN1c1ncnc(N)c1[N+](=O)[O-] (configuration not stated) | > 79 µM (inactive) | 3.66 µM
6 | Cc1nc([N+](=O)[O-])c(Sc2nc3ccc([N+](=O)[O-])cc3[nH]2)n1Cc1ccccc1 | 8.03 µM | 3.5 µM
7 | O=C(Nc1ccc(C(=O)N2CCOCC2)cc1)Nc1cccc(C(F)(F)F)c1 | > 79 µM (inactive) | 1.69 µM
8 | Cc1cnc(NC(=O)CCCc2nc3ccccc3s2)s1 | 44.5 µM | 4.23 µM
9 | O=C(CCS(=O)(=O)c1ccccc1)N(CCCN1CCOCC1)c1nc2c(F)cccc2s1 | 18.1 µM | 7.63 µM
10 | CC(=O)c1cccc(NC(=O)Nc2cccnc2)c1 | 40.3 µM | 0.608 µM
11 | Cc1cccc(NC(=O)c2nc[nH]c2C(=O)NCCCNC(=O)c2[nH]cnc2C(=O)Nc2cccc(C)c2)c1 | 11.4 µM | 4.07 µM
12 | O=C(Nc1nc2ccc(F)cc2s1)C1CCN(S(=O)(=O)c2cc([N+](=O)[O-])ccc2Cl)CC1 | 10.8 µM | 6.4 µM
13 | Cc1cc2cc(CCNC(=O)C(=O)c3c[nH]c4ccccc34)c(=O)[nH]c2cc1C | 24.3 µM | 5.72 µM
14 | N#CC(C#N)c1ccnc2ccccc12 | 28.3 µM | 3.17 µM
15 | CCOC(=O)C1(C(=O)OCC)COC(=O)C1CN1Cc2cc3ccccc3nc2C1 (configuration not stated) | 11.1 µM | 7.48 µM
16 | C=C1C(=O)O[C@@]23[C@H]1CC[C@@H](C)[C@@H]2CC[C@@]1(C)O[C@@H]31 | 44.9 µM | 3.76 µM
17 | C=C(C)COc1ccc(-c2[nH]ncc2-c2ccc(OC)cc2)c(O)c1 | 24 µM | 5.07 µM
18 | O=[N+]([O-])c1ccc(NC(=S)NCCc2ccc(F)cc2)cc1 | 4.52 µM | 4.58 µM
19 | COc1ccc(-n2nc(C(=O)NCC(=O)Nc3cc(OC)c(OC)c(OC)c3)c3ccccc3c2=O)cc1OC | 14.6 µM | 2.25 µM
20 | COc1cc(O)c(CC=C(C)C)c(O)c1C(=O)CCc1ccc(O)cc1 | 41.5 µM | 5 µM
21 | Brc1cccc(CSc2nnc(-c3ccncc3)o2)c1 | > 79 µM (inactive) | 6.88 µM

Row | Structure (SMILES) | IC50 (Cytotoxicity) | IC50 [1]
22 | CCC1=C(CC2NCCc3ccccc32)CC2c3cc(OC)c(OC)cc3CCN2C1 (configuration not stated) | 30 µM | 4.34 µM
23 | CCOc1cc(Br)c(Br)c(C=Nc2ccc(NC(C)=O)cc2)c1O | > 79 µM (inactive) | 3.91 µM
24 | CC1C(=O)N(Cc2cn(Cc3ccco3)nn2)CCS(=O)(=O)N1Cc1ccc(-c2ccccc2C(F)(F)F)cc1 (configuration not stated) | 57.4 µM (inactive) | 14 µM
25 | c1cc(-c2nnc3sc(C4CCCCC4)nn23)ccn1 | > 79 µM (inactive) | 3.45 µM
26 | O=C(NCCc1ccc(F)cc1)c1coc(=O)c(Br)c1 | 21.2 µM | 4.34 µM
27 | COc1cc2oc(=O)cc(-c3ccc(-c4ccc(N(C)C)cc4)cc3)c2c(OC)c1OC | 39.9 µM | 11.6 µM
28 | CCOC(=O)c1sc(NC(=O)c2cccc(S(=O)(=O)N3CCc4ccccc43)c2)c(C#N)c1C | 6.88 µM | 1.02 µM
29 | C=CC[C@@H](CC(=O)N[C@H](CO)Cc1ccccc1)C(=O)NC[C@H](OC(=O)[C@@H](CC=C)Cc1ccc(F)cc1)c1ccccc1 | 8.91 µM | 5.6 µM
30 | O=S(=O)(Nc1ccc(Cl)cc1NS(=O)(=O)c1ccccc1)c1ccccc1 | 40.3 µM | 10 µM
31 | Cc1ccc(S(=O)(=O)/N=C(\CCl)N2CCOCC2)cc1 | 9.62 µM | 2.38 µM
32 | CC(C)(C)OC(=O)NCCCCCNC(=O)c1nc[nH]c1C(=O)NCC(=O)OCc1ccccc1 | 9.6 µM | 3.56 µM
33 | CCOc1ccc(-n2c(C)c(C(C)=O)c3cc(OC(C)=O)ccc32)cc1 | 44.5 µM | 0.925 µM
34 | C/C=C/COC(=O)c1[nH]c2c(c1C)C(=O)CC(c1ccco1)C2 (configuration not stated) | 52.8 µM (inactive) | inactive
35 | CC(C)Nc1ncnc2ccc(Br)cc12 | 10.8 µM | 0.706 µM
36 | Cc1c([N+](=O)[O-])c2ccc(O)cc2n1-c1ccccc1 | 26.2 µM | 0.851 µM
37 | COc1ccc(Nc2nccc(-c3cccc(N)c3)n2)cc1 | 42.6 µM | 4.14 µM
38 | Cc1ncc(CO)c2c1Oc1nc(-c3ccccc3F)nc(SCC(=O)N(C)c3ccccc3)c1C2 | 11.3 µM | 4.17 µM
39 | Clc1ccc(-c2csc3ncnc(N4CCc5ccccc5C4)c23)cc1 | 19.2 µM | 3.99 µM
40 | COc1ccc(/C=N/NC(=O)c2[nH]c3ccc(Br)cc3c2-c2ccccc2)cc1 | 27 µM | 9.3 µM
41 | CN(c1ncnc(N)c1[N+](=O)[O-])C1CCS(=O)(=O)C1 (configuration not stated) | > 79 µM (inactive) | 2.79 µM
